From patent US4731486A, “Hydroformylation using low volatile phosphine ligands” (Union Carbide Corporation, priority 1986, dated 1988)
Counter-ions that a name gives are not always drawn.

What was measured:
[1] = Continuous hydroformylation of propylene (Example 8); conditions: Texanol/PEG-600 8:1
[2] = Batch hydroformylation of propylene in stirred autoclave (Examples 1, 2, 11, 14, 19); conditions: 200 ppm Rh, about 120 mole equivalents ligand, 100° C., 90 psia 1:1:1 H2:CO:C3H6
Protocol: A series of various rhodium complex catalyst precursor solutions consisting essentially of the solubilized reaction product of rhodium dicarbonyl acetylacetonate and various monosulfonated triphenylphosphine metal salt ligands were prepared and employed to hydroformylate propylene into C4 aldehydes in the following manner.
Each rhodium catalytic precursor solution so prepared was then employed to hydroformylate propylene in a magnetically stirred, 100 mL capacity, stainless steel autoclave which was attached to a gas manifold for introducing gases to the desired partial pressures. The autoclave was also equipped with a pressure calibrator for determining reaction pressure to ±0.01 psia. and a platinum resistance thermometer for determining reactor solution temperatures to ±0.10° C. The reactor was heated externally by two 300 watt heating bands. The reactor solution temperature was controlled by a platinum resistance sensor connected to an external proportional temperature controller for controlling the temperature of the external band heaters.
In each non-aqueous hydroformylation reaction, about 15 milliliters (about 14 grams) of the rhodium catalytic precursor solution so prepared was charged to the autoclave reactor under nitrogen and heated to the reaction temperature employed (as given in Table 1 below). The reactor was then vented down to 5 psig. and a premixed gas mixture of 1:1:1 carbon monoxide:hydrogen:propylene was introduced into the reactor via the gas manifold (partial pressures given in Table 1) and the propylene so hydroformylated.
A comparison of the catalytic activity of aqueous and non-aqueous solutions of monosulfonated triphenylphosphine sodium salt ligand promoted catalysts in hydroformylating various molecular weight alphe-olefins was determined as follows.
Both the aqueous and non-aqueous hydroformylation reactions were conducted under identical conditions with regard to temperature, rhodium and ligand concentration, hydrogen and carbon monoxide partial pressure and olefin concentration.

[3] = Solubility of metal salt ligands in nonanal with added solubilizing agent; type: physicochemical; conditions: 25° C.; nonanal with 1:4 CARBOWAX TPEG-900/TERGITOL NP-9
[4] = Solubility of metal salt ligands in different aldehydes; type: physicochemical
[5] = day 1.0, 99 °C, CO 33, H2 53, C3H6 17 psia
[6] = day 2.0, 106 °C, CO 28, H2 54, C3H6 18 psia
[7] = day 3.0, […], CO 23, H2 55, C3H6 19 psia
[8] = day 4.0, […], CO 23, H2 55, C3H6 19 psia
[9] = day 4.9, 104 °C, CO 23, H2 55, C3H6 19 psia
[10] = day 5.8, 103 °C, CO 23, H2 55, C3H6 20 psia
[11] = day 6.7, 98 °C, CO 24, H2 56, C3H6 20 psia

## O=S(=O)(O)c1cccc(P(c2ccccc2)c2ccccc2)c1 [TPPMS-Rb, monosulfonated triphenylphosphine rubidium salt]
[1]; [5]
  Linear/Branched Aldehyde Mole Ratio: 5.15
  Rate (C4 aldehydes), daily average: 1.01 gmoles/L/Hr
[1]; [6]
  Linear/Branched Aldehyde Mole Ratio: 6.19
  Rate (C4 aldehydes), daily average: 1.24 gmoles/L/Hr
[1]; [7]
  Linear/Branched Aldehyde Mole Ratio: 5.86
  Rate (C4 aldehydes), daily average: 0.68 gmoles/L/Hr
[1]; [8]
  Linear/Branched Aldehyde Mole Ratio: 6.04
  Rate (C4 aldehydes), daily average: 0.58 gmoles/L/Hr
[1]; [9]
  Linear/Branched Aldehyde Mole Ratio: 6.12
  Rate (C4 aldehydes), daily average: 0.58 gmoles/L/Hr
[1]; [10]
  Linear/Branched Aldehyde Mole Ratio: 6.45
  Rate (C4 aldehydes), daily average: 0.58 gmoles/L/Hr
[1]; [11]
  Linear/Branched Aldehyde Mole Ratio: 6.60
  Rate (C4 aldehydes), daily average: 0.41 gmoles/L/Hr
[2]; Texanol/Carbowax PEG-600: Li 100:0, K 9:1, Rb 8:1, Ca 20:1, Ba 7:1
  Linear/Branched Aldehyde Mole Ratio: 5.6
[2]; Texanol/Carbowax PEG-600: Li 100:0, K 9:1, Rb 8:1, Cs 7:1, Ca 20:1, Ba 7:1, Sr 18:1
  Reaction Rate (C4 aldehydes): 0.70 Gmoles/L/Hr
[3]
  Metal Salt Solubility: 25 Wt. %
[4]; Butyraldehyde, 60 °C
  Metal Salt Solubility: 1.4 Wt. %
[4]; Heptanal, 80 °C
  Metal Salt Solubility: 3.8 Wt. %
[4]; Nonanal, 80 °C
  Metal Salt Solubility: 0.9 Wt. %
[4]; Propionaldehyde, 35 °C
  Metal Salt Solubility: 6.6 Wt. %
[4]; Tridecanal, 80 °C
  Metal Salt Solubility: 0.5 Wt. %
[4]; Valeraldehyde, 80 °C
  Metal Salt Solubility: 3.3 Wt. %
